The values below come from patent USRE47689E1, “Compounds for treating spinal muscular atrophy” (PTC Therapeutics, Inc., priority 2011, dated 2019).

Where two headings read alike, the source gives them in different places.

The melting point is the temperature of the solid-liquid transition.

Series [1] relates to SMN2 minigene (full length SMN2 minigene mRNA containing SMN2 exon 7). Description: SMN2 minigene mRNA splicing RT-qPCR assay in cultured cells. Format: cell-based, human. As to conditions: Homo sapiens, HEK293-H, read-out: EC1.5x for production of full length SMN2 mRNA. In a few lines:
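Lysates → one-step RT-qPCR, minigene-specific primers (0.4 μM final) + GAPDH multiplex, 40 cycles. FL/GAPDH vs DMSO; EC1.5x, star-binned.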
(In general: Quantitative PCR measures a nucleic acid by following its amplification.)

A further series concerns Smn protein. Description: Smn protein assay in cultured cells (SMN HTRF). The class given is cell-based, human. Particulars: 48 hours; for maximum fold (Fold) increase of Smn protein: SMA patient fibroblast cells, 7-point concentration data, fold increase relative to vehicle control (SMN HTRF); for EC1.5x (concentration giving 1.5-fold Smn protein increase): SMA Type 1 patient fibroblast cells (GM03813), 7-point concentration curve, SMN HTRF, concentration producing 1.5 times Smn protein vs DMSO vehicle control, read-out: EC1.5x for Smn protein expression. Put shortly:
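Smn in SMA fibroblast lysates, measured by anti-SMN HTRF after 48 h compound exposure; EC1.5x from fold change over vehicle.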

Where [2] appears, read: HEK293H cells stably transfected with SMN2-A minigene, 24 hours, 7-point concentration curve, 1.5-fold relative to vehicle-treated cells.

In turn, `Cl.O=c1oc2cc(N3CCNCC3)ccc2cc1-c1nc2c(I)cccc2o1` [Compound 67, 3-(4-iodo-1,3-benzoxazol-2-yl)-7-(piperazin-1-yl)-2H-chromen-2-one hydrochloride] had a melting point of 280 to 285 °C. Besides, in series [1] (setting [2]), the EC (1.5-fold) is 0.3 to 1 µM. In addition, in the series with Smn protein, the “maximum fold (Fold) increase of Smn protein” value (“maximum fold (Fold) increase” below) is recorded as “* (maximum fold increase of ≤1.2)”.
The matching figures for `C[C@H]1CN(c2ccc3cc(-c4cn5cc(Cl)cnc5n4)c(=O)oc3c2)CCN1` [Compound 376, 3-(6-chloroimidazo[1,2-a]pyrimidin-2-yl)-7-[(3S)-3-methylpiperazin-1-yl]-2H-chromen-2-one]: 260 to 262 °C, 1 to 3 µM and “* (maximum fold increase of ≤1.2)”.
In turn, `Cc1cc(F)c2nc(-c3cc4ccc(N5CC6CCC(C5)N6C)cc4oc3=O)cn2c1` [Compound 613, 3-(8-fluoro-6-methylimidazo[1,2-a]pyridin-2-yl)-7-(8-methyl-3,8-diazabicyclo[3.2.1]oct-3-yl)-2H-chromen-2-one] yielded a melting point of 267 to 274 °C. Further, in series [1] (24 h), the EC (1.5-fold) is 0.3 to 1 µM. Besides, the “maximum fold (Fold) increase” value in the series on Smn protein is “** (fold increase between >1.2 and ≤1.35)”.
For `Cc1cc2cc(-c3cc4ccc(N5CCN(C)[C@H](C)C5)cc4oc3=O)oc2c(C)n1` [Compound 807, 3-(5,7-dimethylfuro[2,3-c]pyridin-2-yl)-7-[(3R)-3,4-dimethylpiperazin-1-yl]-2H-chromen-2-one], the melting point lay in the range of 199 to 204 °C. The EC (1.5-fold) in series [1] (setting [2]) is below 0.1 µM. In the series on Smn protein, the EC1.5x (concentration giving 1.5-fold Smn protein increase) is below 300 nM and the “maximum fold (Fold) increase” value is listed as “***** (fold increase >1.65)”.
In the case of `Cc1ccc2nc(-c3cc4ccc(N(C)CCN(C)C)cc4oc3=O)cn2c1` [Compound 175, 7-{[2-(dimethylamino)ethyl](methyl)amino}-3-(6-methylimidazo[1,2-a]pyridin-2-yl)-2H-chromen-2-one], the melting point was 140 to 180 °C (dec.). In series [1] (setting [2]), the EC (1.5-fold) lay in the range of 3 to 30 µM. The “maximum fold (Fold) increase” value in the series with Smn protein is reported as “* (maximum fold increase of ≤1.2)”.
For `CNCCCc1ccc2cc(-c3cc(F)c4nc(C)cn4c3)c(=O)oc2c1` [Compound 913, 3-(8-fluoro-2-methylimidazo[1,2-a]pyridin-6-yl)-7-[3-(methylamino)propyl]-2H-chromen-2-one], the melting point fell in the range of 163 to 166 °C. Further, the EC (1.5-fold) in series [1] (setting [2]) was below 0.1 µM. Besides, in the series on Smn protein, the EC1.5x (concentration giving 1.5-fold Smn protein increase) is below 300 nM and the “maximum fold (Fold) increase” value is listed as “***** (fold increase >1.65)”.
Molecule `Cc1ccn2nc(-c3cc4ccc(N5CCCNCC5)cc4oc3=O)cc2c1` [Compound 309, 7-(1,4-diazepan-1-yl)-3-(5-methylpyrazolo[1,5-a]pyridin-2-yl)-2H-chromen-2-one] displayed a melting point of 203 to 206 °C. In addition, the EC (1.5-fold) in series [1] (setting [2]) lay in the range of 0.3 to 1 µM. For the same molecule, the “maximum fold (Fold) increase” value with Smn protein is “** (fold increase between >1.2 and ≤1.35)”.
Molecule `CN1CCN(c2ccc3cc(-c4cn5cc(F)cc(F)c5n4)c(=O)oc3c2)CC1` [Compound 522, 3-(6,8-difluoroimidazo[1,2-a]pyridin-2-yl)-7-(4-methylpiperazin-1-yl)-2H-chromen-2-one] came in with a melting point of 232 to 238 °C. The EC (1.5-fold) in series [1] (setting [2]) is 0.3 to 1 µM. Further, the “maximum fold (Fold) increase” value in the series on Smn protein is “* (maximum fold increase of ≤1.2)”.
`Cc1cn2cc(-c3cc4ccc(N5CC[C@H](NC(C)C)C5)cc4oc3=O)cc2c(C)n1` [Compound 725, 3-(1,3-dimethylpyrrolo[1,2-a]pyrazin-7-yl)-7-[(3S)-3-(propan-2-ylamino)pyrrolidin-1-yl]-2H-chromen-2-one] displayed a melting point of 217 to 220 °C. Further, the EC (1.5-fold) in series [1] (setting [2]) was below 0.1 µM. In addition, in the series on Smn protein, the EC1.5x (concentration giving 1.5-fold Smn protein increase) was 300 to 1000 nM; the “maximum fold (Fold) increase” value is “*** (fold increase between >1.35 and ≤1.5)”.
